Assay results: patent publication US9321747B2, “Acid addition salt of substituted pyridine compound” (DAIICHI SANKYO COMPANY, LIMITED, priority 2012, dated 2016)
Where a name gives a salt, the structure may show the parent alone.

Target: recombinant human CETP protein (Homo sapiens (Human), UniProt P11597)
Assay: Test of CETP inhibition activity (in vitro, buffer-based)
Type: biochemical
Conditions: [14C]-cholesteryl ester transfer from reconstituted HDL to acceptor lipoprotein, 37° C., 60 minutes, PBS buffer
Experimental: Test of CETP Inhibition Activity (In Vitro, Buffer-Based)
(1) Preparation of Reconstituted HDL
Cholesterol (1.125 μmol), phosphatidyl choline (4.5 μmol) and [^14C]-labeled cholesteryl ester (2.0 μCi; 40 μl) were taken in a glass test tube and well mixed with a vortex, and dried under a nitrogen gas current so that it formed a thin film. The obtained mixture was dissolved in ethanol (200 μl), which was designated as Solution A. A PBS solution [a mixed solution of Na2HPO4 (30 mM), KH2PO4 (8.8 mM), NaCl (60 mM) and EDTA (pH 7.4; 0.67 mM); 4 ml] was taken in a tube and the reaction solution was vigorously stirred with a vortex under a nitrogen current. The above-described Solution A was gently injected into this mixture with a syringe and the reaction solution was vigorously stirred with a vortex for 5 minutes under a nitrogen current. Sodium cholate (200 mM; 0.38 ml) was added to the obtained mixture and the reaction solution was stirred for 2 minutes. ApoA-I protein (3 mg) was added to the obtained mixture and the reaction solution was stirred for 2 minutes. The obtained mixture was adjusted to 5 ml with the PBS solution and then dialyzed with the PBS solution. The obtained mixture was designated as the reconstituted HDL.
(2) Preparation of Acceptor Lipoprotein
NaBr was added to the plasma of a healthy person and the density of the mixture was adjusted to 1.019, and the mixture was subjected to density gradient centrifugation (40000 rpm, for 16 hours) to remove the fraction having a density of less than 1.019. NaBr was added to the obtained mixture and the density of the solution was adjusted to 1.063, and the solution was subjected to density gradient centrifugation (40000 rpm, 18 hours) to provide the fraction consisting of IDL (intermediate density lipoprotein) and LDL (1.019<density<1.063). The obtained fraction was dialyzed with the PBS solution. The obtained mixture was designated as the acceptor lipoprotein.
(3) Measurement of CETP Inhibition Activity
A recombinant human CETP protein (manufactured by Roar Biomedical Inc.; 4.5 ng), the acceptor lipoprotein described in (2) above (32.5 μg) and 5,5′-dithio-bis-(2-nitrobenzoic acid) (7 mM, 15 μl) were taken in a 96 well plate and the total amount of the mixture was adjusted to 48.5 μl with the PBS solution. The test compound [DMSO solution (concentration: 0.15, 0.5, 1.5, 5, 15, 50, 150 and 500 μM); 1.5 μl] was added to each well and the mixture was incubated in a thermostatic bath at 37° C. for 60 minutes. The reconstituted HDL (50 μl) described in (1) above was added to each well and the mixture was reacted in a thermostatic bath at 37° C. for 60 minutes. The 96 well plate was moved onto ice and a precipitation reagent [a mixed solution of magnesium chloride (60 mM) and 0.1% dextran sulfate[1/1(v/v)]; 15 μl] was added to each well, and then the mixture was allowed to stand on ice for 15 minutes. The reaction solution (80 μl) in each well was moved to a filter plate and centrifuged at 1500 rpm for 1 minute, and the filtrate which passed through the filter was designated as the HDL fraction and the radioactivity thereof was measured with a scintillation counter. The percentage decrease in radioactivity in the case where the test compound was added in comparison with that in case where the test compound was not added was designated as the percentage CETP inhibition. The IC50 value was calculated from the percentage CETP inhibition.

recombinant human CETP protein, sequence (P11597 18-493): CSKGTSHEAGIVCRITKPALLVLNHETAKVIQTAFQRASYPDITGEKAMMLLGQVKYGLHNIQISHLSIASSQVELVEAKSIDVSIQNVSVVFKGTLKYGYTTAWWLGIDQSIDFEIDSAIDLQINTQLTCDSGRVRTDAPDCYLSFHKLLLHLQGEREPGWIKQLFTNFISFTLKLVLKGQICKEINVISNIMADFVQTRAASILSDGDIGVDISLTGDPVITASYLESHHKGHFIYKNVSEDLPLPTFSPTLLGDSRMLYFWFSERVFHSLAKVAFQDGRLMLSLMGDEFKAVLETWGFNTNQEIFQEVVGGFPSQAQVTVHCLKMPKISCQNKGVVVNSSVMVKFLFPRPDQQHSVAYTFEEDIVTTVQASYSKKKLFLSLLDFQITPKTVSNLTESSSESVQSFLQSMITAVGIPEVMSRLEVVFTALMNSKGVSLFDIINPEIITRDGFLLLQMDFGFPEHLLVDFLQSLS

Row | Compound | IC50 (dihydrobromide) [nM] | further results
1 | CC1(C)Cc2nc(C3CCN(c4ncc(OCCCS(C)(=O)=O)cn4)CC3)c([C@@H](F)c3ccc(C(F)(F)F)cc3)c(C3CCC(F)(F)CC3)c2[C@@H](O)C1 [Example 18, (5S)-4-(4,4-Difluorocyclohexyl)-3-{(S)-fluoro[4-(trifluoromethyl)phenyl]methyl}-7,7-dimethyl-2-(1-{5-[3-(methylsulfonyl)propoxy]pyrimidin-2-yl}piperidin-4-yl)-5,6,7,8-tetrahydroquinolin-5-ol dihydrobromide] | 18.9 | 
2 | CC1(C)Cc2nc(C3CCN(c4ncc(OCCCS(C)(=O)=O)cn4)CC3)c([C@@H](F)c3ccc(C(F)(F)F)cc3)c(C3CCC(F)(F)CC3)c2[C@@H](O)C1 [Example 19, (5S)-4-(4,4-Difluorocyclohexyl)-3-{(S)-fluoro[4-(trifluoromethyl)phenyl]methyl}-7,7-dimethyl-2-(1-{5-[3-(methylsulfonyl)propoxy]pyrimidin-2-yl}piperidin-4-yl)-5,6,7,8-tetrahydroquinolin-5-ol methanesulfonate] |  | IC50: 22.9 nM
3 | CC1(C)Cc2nc(C3CCN(c4ncc(-c5cccc(C(=O)O)c5)cn4)CC3)c([C@@H](F)c3ccc(C(F)(F)F)cc3)c(C3CCC(F)(F)CC3)c2[C@@H](O)C1 [Example 20, (5S)-2-{1-[5-(3-Carboxyphenyl)pyrimidin-2-yl]piperidin-4-yl}-4-(4,4-difluorocyclohexyl)-3-{(S)-fluoro[4-(trifluoromethyl)phenyl]methyl}-7,7-dimethyl-5,6,7,8-tetrahydroquinolin-5-ol dihydrochloride] |  | IC50 (dihydrochloride): 289 nM
4 | CC1(C)Cc2nc(C3CCN(c4ncc(-c5cccc(C(=O)O)c5)cn4)CC3)c([C@@H](F)c3ccc(C(F)(F)F)cc3)c(C3CCC(F)(F)CC3)c2[C@@H](O)C1 [Example 21, (5S)-2-{1-[5-(3-Carboxyphenyl)pyrimidin-2-yl]piperidin-4-yl}-4-(4,4-difluorocyclohexyl)-3-{(S)-fluoro[4-(trifluoromethyl)phenyl]methyl}-7,7-dimethyl-5,6,7,8-tetrahydroquinolin-5-ol dihydrobromide] | 279 | 
